In US10975116B2, “Methods of treating and preventing gastrointestinal motility disorders using aminosterols” (Enterin, Inc., priority 2013, dated 2021):
Values joined by “and” are separate entries in the source; they are usually repeats but may differ in a detail not shown here. Identical values can stand only once. “Also recorded” adds a separate entry of the source.

What was measured:
appetite and body weight = conditions: cited from earlier work
HIV = conditions: tissue culture; cited from earlier work
[1] = extensive studies in animals; cited from earlier work
gastrointestinal tract = assay: Aminosterol Induced GI Response after oral capsule in a human; format: in vivo
Procedure: Gelatin capsules were prepared for oral administration. Capsules were coated in shellac to prevent their release within the stomach. Furthermore, because squalamine and related aminosterols have antibiotic activity, enteric coating prevents the drug from altering the microbial populations of the stomach. […] Squalamine dilactate powder, 99% pure, or 1436 hydrochloride, 99% pure, was added manually into either Size 0 (for the 200 mg dose) or Size 1 (for the 100 mg dose) gelatin capsules. No excipient was added. The capsules were coated twice in 5% shellac (80% acetone/20% ethanol) and dried before use.
200 mg of squalamine (lactate salt, excipient free) in a coated gelatin capsule was administered orally to a human in the morning on an empty stomach, with water. Squalamine was synthesized as described in Zasloff et al 2011. Within 2 hours nausea was experienced, lasting about 30 minutes. At 2.5 hours, increased peristalsis (“rumbling gut”) was experienced, lasting several minutes. At about 3 hours, a clear watery discharge of about 200 ml was passed rectally. A second episode occurred at 3.2 hours. Following this episode, bowel sounds quieted. No nausea or discomfort was subsequently experienced. Appetite was near normal. Despite normal feeding, feces were not passed for 2.5 days over which time no discomfort was experienced. The first feces passed after this quiescent period was soft and relatively small considering the intake of food and the time interval. Usual bowel functions resumed by about 4 days after squalamine administration.
200 mg of 1436 (HCl salt, excipients free) in a gelatin capsule was administered orally to a human in the morning on an empty stomach, with water. […] At 2 hours, about 100 ml of clear watery diarrhea, recurring at 2.75 hours, 3 hours, 3.25 hours, and 4 hours, with progressively lesser volumes of liquid discharged. First bowel movement was passed at 3.5 days, of normal consistency. The subject experienced no abdominal discomfort, bloating, etc over this period. Usual bowel functions resumed by about 4.5 days after administration of Aminosterol 1436. […]
100 mg of squalamine was orally administered in a capsule as in the first example. […] A period of “bowel quiet” was induced, however, that lasted 2 days, after which normally formed feces were passed.

[2] = single 200 mg oral capsule, morning, empty stomach, one human

For `CC(C)[C@@H](CC[C@@H](C)[C@H]1CC[C@H]2[C@@H]3[C@H](O)C[C@H]4C[C@@H](NCCCNCCCCNCCCN)CC[C@]4(C)[C@H]3CC[C@]12C)OS(=O)(=O)O` [Aminosterol 1436], the “anorectic activity when administered orally” value (appetite and body weight; oral, dogs and rodents) is given as “no anorectic activity”, the “appetite and weight on parenteral administration” value (appetite and body weight; parenteral) is given as “potent appetite suppression and promotion of dose-dependent weight loss; also recorded: capable of inducing weight loss” and the antiviral activity (HIV) is given as “exhibits antiviral activity against HIV”. The “absorption from the gastrointestinal tract” value [1] was “neither squalamine nor Aminosterol 1436 can be absorbed to any extent”, the “duration of the Aminosterol-Induced GI Response” value (gastrointestinal tract; following a single 200 mg oral dose) was “about 4 days” and the “first clear watery rectal discharge / diarrhea, time after dosing” value (gastrointestinal tract; [2]) was 2 h. For the same compound, the “further episodes of watery discharge, time after dosing” value (gastrointestinal tract; [2]) was 2.75 h and 3 h and 3.25 h and 4 h, the “increased peristalsis, time after dosing” value (gastrointestinal tract; [2]) was no more than 1 h and the “usual bowel functions resumed, time after administration” value (gastrointestinal tract; [2]) was “about 4.5 days”. The “volume of first clear watery discharge” value (gastrointestinal tract; [2]) was “about 100 ml”, the “time without feces / to first bowel movement after dosing” value (gastrointestinal tract; single 200 mg oral capsule, morning, empty stomach, normal behavior about 1 passage every 24 hours) was 3.5 days and the “estimated reduction of small intestinal motility” value (gastrointestinal tract; single 200 mg oral dose, versus normal about 1 passage every 24 hours) was 3.5 fold.
